# Measured values as given in PubChem BioAssay AID212 (DTP/NCI, 2004).
# Several values for one entry are separate records, joined by “and”; a condition that tells them apart may be missing. Identical values can stand only once. Records with an inconclusive call do not appear.
# Test system: BDF1 mice, colon carcinoma 38 sc, T/C %
# Assay: NCI In Vivo Anticancer Drug Screen. Data for tumor model Colon Carcinoma 38 (subcutaneous) in B6D2F1 (BDF1) mice
# Conditions: endpoint: median tumor weight (est.), higher = larger tumour
# How it was run: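 Compound antitumor activity was assessed in mice carrying transplantable tumors. Survival or tumor size was recorded, and each value is the treated-group measurement divided by that of the vehicle-treated control group.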
# [1] = dose: 50.0 mg/kg/injection, schedule: Q07DX002 (ip), vehicle: saline
# [2] = dose: 100.0 mg/kg/injection, schedule: Q07DX002 (ip), vehicle: saline
# [3] = dose: 200.0 mg/kg/injection, schedule: Q07DX002 (ip), vehicle: saline
# [4] = dose: 12.5 mg/kg/injection, schedule: Q07DX002 (ip), vehicle: saline
# [5] = dose: 25.0 mg/kg/injection, schedule: Q07DX002 (ip), vehicle: saline
# [6] = dose: 62.5 mg/kg/injection, schedule: Q07DX002 (ip), vehicle: saline
# [7] = dose: 125.0 mg/kg/injection, schedule: Q07DX002 (ip), vehicle: saline
smiles,measurement,setting,value
NC(=S)c1ncn(C2OC(CO)C(O)C2O)c1N (configuration not stated),T/C,"dose: 12.5 mg/kg/injection, schedule: Q07DX002 (ip), vehicle: suspension in saline",114 % of control
same,T/C,"dose: 25.0 mg/kg/injection, schedule: Q07DX002 (ip), vehicle: suspension in saline",80 % of control
same,T/C,[1],106 % of control
same,T/C,"dose: 50.0 mg/kg/injection, schedule: Q07DX002 (ip), vehicle: suspension in saline",87 % of control
same,T/C,[2],118 % of control
same,T/C,"dose: 100.0 mg/kg/injection, schedule: Q07DX002 (ip), vehicle: suspension in saline",67 % of control
same,T/C,[3],259 % of control
same,T/C,"dose: 200.0 mg/kg/injection, schedule: Q07DX002 (ip), vehicle: suspension in saline",56 % of control
same,T/C,"dose: 400.0 mg/kg/injection, schedule: Q07DX002 (ip), vehicle: saline",226 % of control
same,T/C,"dose: 400.0 mg/kg/injection, schedule: Q07DX002 (ip), vehicle: suspension in saline",67 % of control
Cc1cn(C2CC3[O][Sn]([c]4ccccc4)([c]4ccccc4)[O]CC3O2)c(=O)[nH]c1=O (configuration not stated),T/C,[4],110 % of control
same,T/C,[5],100 % of control
same,T/C,[1],95 % of control
same,T/C,[2],110 % of control
same,T/C,[3],99 % of control
[Cl][Sn]([c]1ccccc1)[c]1ccccc1,T/C,"dose: 6.25 mg/kg/injection, schedule: Q07DX002 (ip), vehicle: saline",113 % of control
same,T/C,[4],108 % of control
same,T/C,"dose: 12.5 mg/kg/injection, schedule: Q09DX002 (ip), vehicle: saline",95 % of control
same,T/C,[5],89 % of control
same,T/C,"dose: 25.0 mg/kg/injection, schedule: Q09DX002 (ip), vehicle: saline",93 % of control
CCN(CC)CC(C)(C)C(=O)/C=C/c1ccccc1,T/C,[6],102 % of control
same,T/C,[7],52 % of control
CN(C)CCN(C)CC(C)(C)C(=O)/C=C/c1ccccc1,T/C,"dose: 31.25 mg/kg/injection, schedule: Q07DX002 (ip), vehicle: saline",119 % of control
same,T/C,[6],11 % of control
same,T/C,[7],52 % of control
NC(Cc1ccc(N(CCCl)Cc2ccccc2)cc1)C(=O)O (configuration not stated),T/C,"dose: 3.12 mg/kg/injection, schedule: Q07DX002 (ip), vehicle: distilled water + Tween-80",69 % of control and 90 % of control
same,T/C,"dose: 6.25 mg/kg/injection, schedule: Q07DX002 (ip), vehicle: distilled water + Tween-80",108 % of control
same,T/C,"dose: 12.5 mg/kg/injection, schedule: Q07DX002 (ip), vehicle: distilled water + Tween-80",51 % of control and 70 % of control
same,T/C,"dose: 25.0 mg/kg/injection, schedule: Q07DX002 (ip), vehicle: distilled water + Tween-80",109 % of control and 108 % of control
same,T/C,"dose: 50.0 mg/kg/injection, schedule: Q07DX002 (ip), vehicle: distilled water + Tween-80",72 % of control and 92 % of control
CC1=CC2C(O)(CC(CO)=CC3C4C(C)(C)C4(OC(=O)c4ccccc4)C(OC(=O)c4ccccc4)C(C)C32O)C1=O (configuration not stated),T/C,"dose: 0.5 mg/kg/injection, schedule: Q07DX002 (ip), vehicle: saline with Tween-80",156 % of control
same,T/C,"dose: 2.0 mg/kg/injection, schedule: Q07DX002 (ip), vehicle: saline with Tween-80",167 % of control
C1CCC2OCCOCCOC3CCCCC3OCCOCCOC2C1 (configuration not stated),T/C,"dose: 3.12 mg/kg/injection, schedule: Q07DX002 (ip), vehicle: Klucel (hydroxypropylcellulose) (HPC)",210 % of control and 96 % of control
same,T/C,"dose: 6.25 mg/kg/injection, schedule: Q07DX002 (ip), vehicle: Klucel (hydroxypropylcellulose) (HPC)",176 % of control
same,T/C,"dose: 12.5 mg/kg/injection, schedule: Q07DX002 (ip), vehicle: Klucel (hydroxypropylcellulose) (HPC)",85 % of control
same,T/C,"dose: 50.0 mg/kg/injection, schedule: Q07DX002 (ip), vehicle: Klucel (hydroxypropylcellulose) (HPC)",85 % of control
CC(=O)Oc1ccc[nH]c1=O,T/C,"dose: 25.0 mg/kg/injection, schedule: Q07DX002 (ip), vehicle: saline with Tween-80",102 % of control
same,T/C,"dose: 25.0 mg/kg/injection, schedule: Q07DX003 (ip), vehicle: saline with Tween-80",101 % of control
same,T/C,"dose: 50.0 mg/kg/injection, schedule: Q07DX002 (ip), vehicle: saline with Tween-80",77 % of control
same,T/C,"dose: 50.0 mg/kg/injection, schedule: Q07DX003 (ip), vehicle: saline with Tween-80",70 % of control
same,T/C,"dose: 100.0 mg/kg/injection, schedule: Q07DX002 (ip), vehicle: saline with Tween-80",108 % of control and 92 % of control
same,T/C,"dose: 100.0 mg/kg/injection, schedule: Q07DX003 (ip), vehicle: saline with Tween-80",49 % of control
same,T/C,"dose: 200.0 mg/kg/injection, schedule: Q07DX002 (ip), vehicle: saline with Tween-80",114 % of control
same,T/C,"dose: 200.0 mg/kg/injection, schedule: Q07DX003 (ip), vehicle: saline with Tween-80",114 % of control
same,T/C,"dose: 400.0 mg/kg/injection, schedule: Q07DX003 (ip), vehicle: saline with Tween-80",83 % of control
same,T/C,"dose: 800.0 mg/kg/injection, schedule: Q07DX002 (ip), vehicle: saline with Tween-80",74 % of control and 75 % of control
same,T/C,"dose: 800.0 mg/kg/injection, schedule: Q07DX003 (ip), vehicle: saline with Tween-80",57 % of control
